These results are taken from patent publication US11759439B2, “Bromhexine for the treatment of pain” (priority 2017, dated 2023).

“Also recorded” adds a separate entry of the source.

One series relates to rodents. As to conditions: cited from earlier work.
The target in series [1] is T1, tetrodotoxin-resistant (TTXr) Na+ currents encoded by Nav1.8 (Homo sapiens, UniProt Q9Y5Y9).
T1 construct: host or cells: sensory neurons
As to conditions: preference for TTXr Na+ currents encoded by Nav1.8; cited from earlier work.

The test system of a further series is humans. As to conditions: cited from earlier work.
Series [2] has as its system patient with osteoarthritis in both knees and chronic postsurgical pain (CPSP) after knee replacement. Description: Case report 1: topical bromhexine cream, NRS pain score, knees. It counts as in vivo, human. From the text: (§1) In the following Examples a dermal topical cream was used comprising 20% (w/w) bromhexine HCl (10 g), medium-chain triglycerides (MCTs; Triglycerida Saturata Medium Migloyol® 812N, FAGRON GmbH & Co. KG, Cas No. 73398-61-5) (5 g), Linola Creme ad 50 g (Dr. August Wolff GmbH & Co. KG Arzneimittel, PZN 02489672; emulsion O/W containing unsaturated fatty acids (C182), carbomer 980, decyloleat, glycerol monosterate, ceteareth-3, phenoxyethanol, stearic acid, trometamol, wax bleached and purified water), unless stated otherwise. The dermal topical cream was prepared by mixing bromhexine with the MCTs and adding the Linola Creme to obtain a homogenous cream. We chose a dermal topical cream rather than a gel, because a cream is better absorbed by the skin. Bromhexine was fast and easy to formulate into a topical pharmaceutical composition, particularly into a homogenous cream.
(§2) The dermal topical cream was administered (thinly) to the skin in the affected area and a beneficial effect was typically noticed within 30 min. The effect lasted for about 4 to 12 hours, typically 6 hours. For long term treatment the cream was administered 2 to 3 times per day. In some cases a once daily administration was sufficient.
(§3) In all case reports shown below, the intensity of pain is reported with the NRS-Score (NRS=numeric rating scale) on which the patient rates their pain between ‘0=no pain’ and ‘10=unbearable pain’. The NRS-Score is the standard of pain evaluation in international publications and according to the literature an intensity of NRS 3 or lower usually is felt as ‘tolerable’ by patients with chronic pain.
A patient suffered from osteoarthritis in both knees and had received knee replacement followed by chronic postsurgical pain (CPSP) in one of it. […] Starting on a pain level of NRS 7, 30 min after topical bromhexine the pain decreased to NRS 6 and to NRS 4 within 2 hours. […] On another occasion the pain was reduced in both knees from NRS 6 before bromhexine treatment to NRS 3 after 2 hours.

Series [3] relates to patient with neuropathic pain in both feet. As to the kind of experiment: Case report 2: topical bromhexine cream, NRS pain score, neuropathic forefoot pain. As to conditions: for effect of earlier treatment (patient history): before bromhexine. The series is classed as in vivo, human.
Source text: as §1, §2, §3
The […] presented neuropathic pain in both feet and felt “running on coals” and as “gripped in a vice”, walking or gardening were almost impossible. It could not be explained in orthopaedic terms and no polyneuropathy was detected on neurographic investigation. […] Gabapentin, opiates and topical lidocaine were not helpful. After topical bromhexine the pain of NRS 5 during the heel-to-toe roll and the forefoot touch sensitivity decreased to NRS 1 within 15 min and disappeared after 30 min for hours (FIG. 6, last columns, “neuropathic forefoot pain”).

Series [4] has as its system patient with fibromyalgia pain. Description: Case report 11: topical bromhexine, fibromyalgia pain of the hands. It counts as in vivo, human.
Source text: as §1
(§4) The dermal topical cream was administered (thinly) to the skin in the affected area and a beneficial effect was typically noticed within 30 min. The effect lasted for about 4 to 12 hours, typically 6 hours. For long term treatment the cream was administered 2 to 3 times per day. In some cases a once daily administration was sufficient. […]

For the next series, the system named is treated patients. Description: Topical bromhexine cream in pain patients: onset, duration, side effects (all cases). The series is classed as in vivo, human.
Source text: as §1, §4

In series [5] the test system is patient with chronic severe pain syndrome of both hands and arms from unclear origin. As to the kind of experiment: Case report 8: topical bromhexine, chronic unclear severe pain syndrome of hands and arms. It counts as in vivo, human.
Source text: as §1, §2
Further the extent of possible finger spreading was much better in their left hand, which was treated with the bromhexine compared to their untreated right hand (FIG. 1 C). Particularly the extent of the “pain limited” finger spreading of their bromhexine treated left hand hand compared to their untreated right hand increased. In their untreated right hand pain started immediately with the first movement. Further, the extent of possible free of pain elbow rotation 20 min after bromhexine in their left treated elbow increased (FIG. 1D, bottom panel). No movement free of pain was possible in their right elbow (FIG. 1D, top panel).

The conditions of series [6]: in vivo; cited from earlier work.
Series [7] concerns patient with rheumatoid arthritis and fibromyalgia. As to the kind of experiment: Case report 6: topical bromhexine cream, rheumatoid arthritis and fibromyalgia, hands. It counts as in vivo, human.
Source text: as §1, §2
A rheumatoid arthritis and fibromyalgia for many years developed a chronic pain disease in a person. Hands were distorted painfully and movements like the closure of fist were only possible very slowly and the movement was painful and incomplete. Self-supply was threatened. The medical options for pain therapy were limited due to long-term side effects on stomach, kidney, cardiovascular system and liver by nonsteroidal anti-rheumatic drugs (NSAIDS) or coxibes as well as the risk of tumbling caused by central nervous effects as sedation and dizziness. Bromhexine cream was applied at both hands. Already 2 min later the patients started to move both hands and ‘searched their pain’ because it was improved and movements could be performed more easily, quickly and complete. […]

Series [8] has as its system patient with complex regional pain syndrome (CRPS). As to the kind of experiment: Case report 7: topical bromhexine, complex regional pain syndrome (CRPS). It counts as in vivo, human. As to conditions: 30-45 min following the treatment.
Source text: as §1, §4

Series [9] deals with patient with severe fibromyalgia pain. As to the kind of experiment: Case report 10: topical bromhexine, severe fibromyalgia. The series is classed as in vivo, human. Conditions: 25 min after topical bromhexine.
Source text: as §1, §2
A patient with severe fibromyalgia pain presented an exacerbation with painful hand/finger movements and swelling. […] The patient was surprised about the reduced swelling, the possibility of the closure of fist and a reduction of the functional impairment during movement. Closure of the fist was only possible to a half-closed position without (or almost no) pain before treatment (FIG. 4C, top panel).

Series [10] concerns patient with painful left knee after meniscus surgery. As to the kind of experiment: Case report 3: topical bromhexine, NRS pain score, knee pain after meniscus surgery. It counts as in vivo, human. As to conditions: after bromhexine treatment; NRS 8 before; time not stated.
Source text: as §1, §4

The test system of series [11] is patient with chronic pain caused by osteoarthritis of the fingers. Description: Case report 9: topical bromhexine, osteoarthritis of the fingers. It counts as in vivo, human. Conditions: 15 min after topical bromhexine; before: incomplete and very painful.
Source text: as §1, §2
A patient with chronic pain caused by osteoarthritis of the fingers for many years. Forming a fist was incomplete and very painful. […]

Another series relates to mucus. Conditions: cited from earlier work.
Series [12] has as its system patient with postherpetic neuralgia. Description: Case report 4: topical bromhexine, postherpetic neuralgia. It counts as in vivo, human. As to conditions: for pain in the treated area (NRS): untreated abdominal area unchanged.
Source text: as §1, §2, §3
A patient contracted an infection with the herpes zoster virus followed by skin eruptions 3 years ago. In the affected area of the right thorax they developed a dynamic allodynia and pinprick hyperalgesia and hypersensitivity to cold and airbrush which spread out circular to the abdominal region. Only the dorsal part of the area was treated with bromhexine. […]

For series [13], the system named is patient with pain in right hand and wrist due to osteoarthritis. As to the kind of experiment: Case report 3: topical bromhexine cream, NRS pain score, osteoarthritis of hand and wrist. The series is classed as in vivo, human. Conditions: within 2 hours after topical bromhexine cream; NRS 6 before treatment.
Source text: as §1, §4

Series [14] has as its system patient with severe chronic low back pain and S1 radiculopathy. Description: Case report 5: topical bromhexine, low back pain (S1-radiculopathy). The series is classed as in vivo, human.
Source text: as §1, §4

With `Nc1c(Br)cc(Br)cc1CN[C@H]1CC[C@H](O)CC1` [Ambroxol], the pain-related behavior entry in the series on rodents is recorded as “reduce pain-related behavior”. The “Na+ currents in sensory neurons” value in series [1] is recorded as “block Na+ currents”. Further, in the series on humans, the pain entry is “alleviate pain”.

Take `CCN(CC)CC(=O)Nc1c(C)cccc1C` [lidocaine]: the “effect of earlier treatment (patient history)” value in series [2] (topical plasters, before bromhexine) is listed as “not been helpful”; in series [3], “not helpful”.

As for `NCC1(CC(=O)O)CCCCC1` [Gabapentin], the “effect of earlier treatment (patient history)” value in [3] is reported as “not helpful”.

In the case of `CN(Cc1cc(Br)cc(Br)c1N)C1CCCCC1` [bromhexine, 2,4-dibromo-6-[[cyclohexyl(methyl)amino]methyl]aniline], the stabbing entry in series [4] (30 min following topical bromhexine) was “disappeared”. For the same compound, the “pain in both hands with tension, stiffness, swelling and stabbing” value in series [4] (30 min following topical bromhexine to the hands, NRS 5 before) was “disappeared broadly”. In addition, the side effects result in the series with treated patients is “None of the treated patients reported side effects”. Besides, the “pain level (NRS)” value in series [2] (30 min after topical bromhexine, starting pain level NRS 7, knee with CPSP) is 6 NRS; in [2] (another occasion, both knees, NRS 6 before bromhexine, after 2 hours) it was 3 NRS; in [2] (within 2 hours after topical bromhexine, starting pain level NRS 7, knee with CPSP) it was 4 NRS; in series [3] (8 hours later, NRS 5 before) it was 2 NRS; in series [14] (within 30 minutes, NRS 6 before bromhexine) it was “about 4”. In addition, the “swelling in the treated area” value in series [5] (20 min after bromhexine) is “reduction of swelling”. Also, in series [5] (20 min after bromhexine, left treated elbow), the “extent of possible free of pain elbow rotation” value is given as “increased”. The “reddening of the treated left hand” value in series [5] (20 min following topical bromhexine, right hand untreated) is listed as “reduction of reddening”. For the same compound, the “pain and feeling of swelling and tension” value in series [5] (20 min following topical bromhexine, treated left hand) is “impressive reduction”. Moreover, the “movements of the left hand and arm” value in series [5] (about 30 min after bromhexine, none free of pain in untreated right arm) is listed as “able to perform movements free of pain; also recorded: diverse possible movements free of pain”. Besides, the “extent of possible finger spreading” value in series [5] (treated left hand compared to untreated right hand, 20 min) is on record as “much better”. Besides, the bioavailability result in series [6] is “relatively low”. For the same compound, the hepatic first-pass effect entry in series [6] was “up to 80%”. Also, the “passage of the blood-brain barrier” value in series [6] was “pass the blood-brain barrier”. In addition, the closure of fist entry in [7] (5 min after topical bromhexine, both hands) is “improved notable in motion sequence; also recorded: improved notably in motion sequence”. Besides, the “time to first improvement of pain and movements” value in [7] (after application of bromhexine cream at both hands) was determined as 2 min. Besides, the “duration of the improvement” value in [7] (in vivo) was “several hours”. Also, the “motions of the hand” value in series [8] was “without stabbing sensations”. Also, in [8] (8 NRS before), the “burning pain (NRS)” value is given as 3 NRS. Moreover, the “swelling of the treated right hand” value in series [9] was “strongly reduced”. The “closure of the fist” value in series [9] (before: only half-closed without pain) was “completely possible without pain; also recorded: closed completely and without pain”; in series [11], “closed completely and with reduced pain; also recorded: performed completely and with reduced pain”. Also, in series [9] (impossible before), the “movement of the thumb to the palm” value is reported as “free of pain; also recorded: not any longer limited by pain”. In addition, the “functional impairment of walking” value in series [3] (8 hours later) is on record as “without recurrence”. Also, the “pain during heel-to-toe roll and forefoot touch sensitivity” value in series [3] (after 30 min, for hours, NRS 5 before) is given as “disappeared”. Also, in [3] (within 15 min after topical bromhexine, NRS 5 before), the “pain level (NRS) during heel-to-toe roll and forefoot touch sensitivity” value turned out to be 1 NRS. In series [10], the “pain intensity (NRS)” value is on record as 4.5 NRS. For the same compound, the secretion volume entry in the series on mucus (in vivo) is given as “increases”. In the series on mucus (in vivo), the “viscosity of the sputum” value is reported as “decreases”. Further, in the series on mucus (known oral use), the side-effects result is “very few side-effects”. Also, the “pain in the treated area (NRS)” value in series [12] (after 15 min) turned out to be 4 NRS; in series [12] (after 30 min) it was 1 NRS. Also, in series [12] (after the first few minutes, treated dorsal area), the “tingling sensation and subjective hypersensitivity” value was “disappeared completely”. For the same compound, the “pain (NRS)” value in series [13] stood at 0.5 NRS. The stabbing sensations result in series [14] (after bromhexine) is listed as “reduced”.
